# Where a SMILES comes first, the peptide text is derived from it. Bridges are numbered along the chain shown (N, C = ends). [ ]: non-standard residue; d: D form. The star is where a group is joined. hPhe(3-Cl-4-CF3) = N[C@@H](CCc1ccc(C(F)(F)F)c(Cl)c1)C(=O)O; NPrPhe(4-CF3) = CCCN[C@@H](Cc1ccc(C(F)(F)F)cc1)C(=O)O; NEtPhe(4-Me) = CCN[C@@H](Cc1ccc(C)cc1)C(=O)O; NMeGly(cPent) = CN[C@H](C(=O)O)C1CCCC1; Hyp = O=C(O)[C@@H]1C[C@@H](O)CN1; NMeD = CN[C@@H](CC(=O)O)C(=O)O; NMeL = CN[C@@H](CC(C)C)C(=O)O; Morpholide = C1CN(*)CCO1; Ac5c = NC1(C(=O)O)CCCC1; NEtG = CCNCC(=O)O; Sar = CNCC(=O)O
# Legend:
# [1] = target: GDP-bound HRAS wild-type protein (Homo sapiens, UniProt P01112); assay: Binding to HRAS by surface plasmon resonance (SPR), Single Cycle Kinetics
# Chain of GDP-bound HRAS wild-type protein (P01112 whole entry): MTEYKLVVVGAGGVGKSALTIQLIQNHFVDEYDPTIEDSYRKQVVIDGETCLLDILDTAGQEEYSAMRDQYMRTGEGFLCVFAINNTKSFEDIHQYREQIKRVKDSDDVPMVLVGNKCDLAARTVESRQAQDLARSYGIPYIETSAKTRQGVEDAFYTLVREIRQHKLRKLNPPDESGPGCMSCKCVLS
# [2] = target: GDP-bound NRAS wild-type protein (Homo sapiens, UniProt P01111); assay: Binding to NRAS by surface plasmon resonance (SPR), Single Cycle Kinetics
# Chain of GDP-bound NRAS wild-type protein (P01111 whole entry): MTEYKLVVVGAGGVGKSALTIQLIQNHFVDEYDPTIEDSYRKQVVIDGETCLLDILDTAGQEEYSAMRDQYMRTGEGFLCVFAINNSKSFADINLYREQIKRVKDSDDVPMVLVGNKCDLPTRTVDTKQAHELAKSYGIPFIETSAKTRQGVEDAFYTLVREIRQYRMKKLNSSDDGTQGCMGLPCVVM
# [3] = KD ratio, GDP-bound HRAS wild-type vs GDP-bound KRAS wild-type, SPR
# [4] = KD ratio, GDP-bound NRAS wild-type vs GDP-bound KRAS wild-type, SPR
structure (smiles),measurement,setting,value
CCO[C@@H]1C[C@H]2C(=O)NC3(CC(C)(C)C3)C(=O)N(C)[C@@H](C(CC)CC)C(=O)N(C)[C@H](CC)CC(=O)N(C)[C@@H](CC3CC3)C(=O)N[C@@H]([C@@H](C)CC)C(=O)N(C)CC(=O)N(C)[C@H]3C/C=C\CCN(C3=O)[C@@H](Cc3ccc(C(F)(F)F)cc3)C(=O)N(C)CC(=O)N[C@@H](CCc3cc(F)c(C(F)(F)F)c(F)c3)C(=O)N2C1 [PP1628],HRAS/KRAS (ratio of KD value for HRAS to KD value for KRAS),[1]; [3],A (a compound having 10 or more and less than 20 is denoted as A)
same,NRAS/KRAS (ratio of KD value for NRAS to KD value for KRAS),[2]; [4],A (a compound having 10 or more and less than 20 is denoted as A)
CC[C@H](C)[C@@H]1NC(=O)[C@H](CC(C)C)N(C)C(=O)C[C@@H](C(=O)N2CCOCC2)N(C)C(=O)[C@H](C2CCCC2)N(C)C(=O)C2(CCCC2)NC(=O)[C@@H]2C[C@@H](O)CN2C(=O)[C@H](CCc2ccc(C(F)(F)F)c(Cl)c2)NC(=O)CN(C)C(=O)[C@H](Cc2ccc(C)cc2)N(CC)C(=O)CN(C)C(=O)CN(C)C1=O [PP0041] ([NMeL]I[Sar][Sar][NEtPhe(4-Me)][Sar][hPhe(3-Cl-4-CF3)][Hyp][Ac5c][NMeGly(cPent)][NMeD]-Morpholide; lactam N-11),HRAS/KRAS (ratio of KD for GDP-bound HRAS wild-type to KD for KRAS),"[1]; KD ratio HRAS/KRAS, SPR",C (A compound having a KD ratio of 0.1 or more and less than 3 is denoted as C)
same,NRAS/KRAS (ratio of KD for GDP-bound NRAS wild-type to KD for KRAS),"[2]; KD ratio NRAS/KRAS, SPR",B (a compound having 3 or more and less than 10 is denoted as B)
CCCN1C(=O)CN(C)C(=O)CN(CC)C(=O)[C@H]([C@@H](C)CC)NC(=O)[C@H](CC(C)C)N(C)C(=O)C[C@@H](C(=O)N(C)C)N(C)C(=O)[C@H](C2CCCC2)N(C)C(=O)C2(CCCC2)NC(=O)[C@@H]2CCCN2C(=O)[C@H](CCc2ccc(C(F)(F)F)c(Cl)c2)NC(=O)CN(C)C(=O)[C@@H]1Cc1ccc(C(F)(F)F)cc1 [PP0423] ([NMeL]I[NEtG][Sar][NPrPhe(4-CF3)][Sar][hPhe(3-Cl-4-CF3)]P[Ac5c][NMeGly(cPent)][NMeD]-NMe2; lactam N-11),HRAS/KRAS (ratio of KD value with respect to GDP-bound HRAS wild-type protein to KD value with respect to KRAS),"[1]; KD ratio HRAS/KRAS, SPR",C (A compound having a KD ratio of 0.1 or more and less than 3 is denoted as C)
same,NRAS/KRAS (ratio of KD value with respect to GDP-bound NRAS wild-type protein to KD value with respect to KRAS),"[2]; KD ratio NRAS/KRAS, SPR",B (a compound having 3 or more and less than 10 is denoted as B)
"CCC[C@H]1C(=O)N[C@@H]([C@@H](C)CC)C(=O)N(C)CC(=O)N(C)[C@H]2C/C=C\CCN(C2=O)[C@@H](Cc2ccc(C(F)(F)F)cc2)C(=O)N(C)CC(=O)N[C@@H](CCc2ccc(C(F)(F)F)c(OC)c2)C(=O)N2C[C@H](OCC)C[C@H]2C(=O)N(C)C2(CCC2)C(=O)N(C)[C@@H](C2CCCC2)C(=O)N(C)[C@H](C(=O)N2CCCC2)CC(=O)N1C [PP3105, (2S,8S,12R,14S,20S,23S,27S,30S,36S,38Z)-20-cyclopentyl-12-ethoxy-8-[2-[3-methoxy-4-(trifluoromethyl)phenyl]ethyl]-4,16,19,22,26,32,35-heptamethyl-30-[(1S)-1-methylpropyl]-27-propyl-23-(pyrrolidine-1-carbonyl)-2-[[4-(trifluoromethyl)phenyl]methyl]spiro[1,4,7,10,16,19,22,26,29,32,35-undecazatricyclo[34.5.1.0^10,14]dotetracont-38-ene-17,1′-cyclobutane]-3,6,9,15,18,21,25,28,31,34,42-undecone]",HRAS/KRAS (ratio of KD value with respect to GDP-bound HRAS wild-type protein to KD value with respect to KRAS),"[1]; KD ratio HRAS/KRAS, SPR, GDP-bound wild-type proteins",A (a compound having 10 or more and less than 20 is denoted as A)
same,NRAS/KRAS (ratio of KD value with respect to GDP-bound NRAS wild-type protein to KD value with respect to KRAS),"[2]; KD ratio NRAS/KRAS, SPR, GDP-bound wild-type proteins",AA (a compound having 20 or more is denoted as AA)
C=CC[C@H]1C(=O)N[C@@H]([C@@H](C)CC)C(=O)N(C)CC(=O)N(C)[C@H]2CCCCCN(C2=O)[C@@H](Cc2ccc(C(F)(F)F)cc2)C(=O)N(C)CC(=O)N[C@@H](CCc2cc(F)c(C(F)(F)F)c(F)c2)C(=O)N2C[C@H](OCC)C[C@H]2C(=O)N[C@](C)(CC=C)C(=O)N(C)[C@@H](C2CCCC2)C(=O)N(C)[C@H](C(=O)N2CCOCC2)CC(=O)N1C [PP0878],HRAS/KRAS (ratio of KD value with respect to HRAS to KD value with respect to KRAS),[1]; [3],B (a compound having 3 or more and less than 10 is denoted as B)
same,NRAS/KRAS (ratio of KD value with respect to NRAS to KD value with respect to KRAS),[2]; [4],B (a compound having 3 or more and less than 10 is denoted as B)
CCC[C@H]1C(=O)N[C@@H](CC(C)C)C(=O)N(CCOC)CC(=O)N(C)[C@H]2C/C=C\CCN(C2=O)[C@@H](Cc2ccc(C)cc2)C(=O)N(C)CC(=O)N[C@@H](CCc2cc(F)c(C(F)(F)F)c(F)c2)C(=O)N2C[C@H](OCC)C[C@H]2C(=O)NC2(CCC2)C(=O)N(C)[C@@H](C2CCCC2)C(=O)N(C)[C@H](C(=O)N(C)C)CC(=O)N1C [PP2541],HRAS/KRAS (ratio of KD value with respect to GDP-bound HRAS wild-type protein to KD value with respect to KRAS),"[1]; KD ratio HRAS/KRAS, class symbols",B (a compound having 3 or more and less than 10 is denoted as B)
same,NRAS/KRAS (ratio of KD value with respect to GDP-bound NRAS wild-type protein to KD value with respect to KRAS),"[2]; KD ratio NRAS/KRAS, class symbols",A (a compound having 10 or more and less than 20 is denoted as A)
CCO[C@@H]1C[C@H]2C(=O)NC3(CCC3)C(=O)N(C)[C@@H](C3CCCC3)C(=O)N(C)[C@H](C(=O)N3CCOCC3)CC(=O)N(C)[C@@H](CC(C)C)C(=O)N[C@@H]([C@@H](C)CC)C(=O)N(C)CC(=O)N(C)[C@H]3CC=C(C)CN(C3=O)[C@@H](Cc3ccc(C(F)(F)F)cc3)C(=O)N(C)CC(=O)N[C@@H](CCc3cc(F)c(C(F)(F)F)c(F)c3)C(=O)N2C1 [PP0826],HRAS/KRAS (ratio of KD value with respect to HRAS to KD value with respect to KRAS),[1]; [3],B (a compound having 3 or more and less than 10 is denoted as B)
same,NRAS/KRAS (ratio of KD value with respect to NRAS to KD value with respect to KRAS),[2]; [4],C (A compound having a KD ratio of 0.1 or more and less than 3 is denoted as C)
